Where two headings read alike, the source gives them in different places.
Columns and labels:
NCI-60 panel [1] = conditions: average response from all cell lines tested, cited from earlier work; for GI50: read-out: Potency, Mean GI50
HepG2 [2] = test: Caspase-Glo 3/7 induction, HepG2; assay type: cell-based, human
HepG2 cells [3] = test: Cell viability with pan-caspase inhibitor Z-VAD-FMK co-treatment; assay type: cell-based, human; conditions: Z-VAD-FMK 20 μM pre-incubation 60 min, then 30 μM compound for 24 h
T47D = test: MTT cell viability assay, T47D; assay type: cell-based; conditions: Homo sapiens, 72 h, read-out: EC50 cell viability, Breast T47D
SKBR3 = test: MTT cell viability assay, SKBR3; assay type: cell-based; conditions: Homo sapiens, SK-BR-3, 72 h, read-out: EC50 cell viability, Breast SKBR3
[4] = molecular target: soluble epoxide hydrolase (sEH); conditions: read-out: IC50 against sEH; cited from earlier work
ACHN = test: MTT cell viability assay, ACHN; assay type: cell-based; conditions: Homo sapiens, 72 h, read-out: EC50 cell viability, Kidney ACHN
Raf-1 kinase = conditions: read-out: IC50 recombinant Raf-1 kinase inhibition; cited from earlier work
PC-3 = test: MTT cell viability assay, PC-3; assay type: cell-based; conditions: Homo sapiens, PC-3, 72 h, read-out: EC50 cell viability, Prostate PC-3
Huh-7 [5] = test: MTT cell viability assay, Huh-7; assay type: cell-based; conditions: Homo sapiens, Huh-7, 72 h, read-out: EC50 cell viability, Liver Huh-7
HepG2 cells [6] = test: Mitochondrial membrane depolarization and AIF release; assay type: cell-based, human; conditions: 30 μM, 6 h
Huh-7 [7] = test: Caspase-Glo 3/7 induction, Huh-7; assay type: cell-based, human
HepG2 [8] = test: MTT cell viability assay, HepG2; assay type: cell-based, human
EPHA1 = molecular target: T1, EPHA1 (Homo sapiens, UniProt P21709); test: KinaseSeeker kinase screen, EPHA1; assay type: binding; conditions: 10 μM, compared with sorafenib
T1 sequence (P21709 26-976): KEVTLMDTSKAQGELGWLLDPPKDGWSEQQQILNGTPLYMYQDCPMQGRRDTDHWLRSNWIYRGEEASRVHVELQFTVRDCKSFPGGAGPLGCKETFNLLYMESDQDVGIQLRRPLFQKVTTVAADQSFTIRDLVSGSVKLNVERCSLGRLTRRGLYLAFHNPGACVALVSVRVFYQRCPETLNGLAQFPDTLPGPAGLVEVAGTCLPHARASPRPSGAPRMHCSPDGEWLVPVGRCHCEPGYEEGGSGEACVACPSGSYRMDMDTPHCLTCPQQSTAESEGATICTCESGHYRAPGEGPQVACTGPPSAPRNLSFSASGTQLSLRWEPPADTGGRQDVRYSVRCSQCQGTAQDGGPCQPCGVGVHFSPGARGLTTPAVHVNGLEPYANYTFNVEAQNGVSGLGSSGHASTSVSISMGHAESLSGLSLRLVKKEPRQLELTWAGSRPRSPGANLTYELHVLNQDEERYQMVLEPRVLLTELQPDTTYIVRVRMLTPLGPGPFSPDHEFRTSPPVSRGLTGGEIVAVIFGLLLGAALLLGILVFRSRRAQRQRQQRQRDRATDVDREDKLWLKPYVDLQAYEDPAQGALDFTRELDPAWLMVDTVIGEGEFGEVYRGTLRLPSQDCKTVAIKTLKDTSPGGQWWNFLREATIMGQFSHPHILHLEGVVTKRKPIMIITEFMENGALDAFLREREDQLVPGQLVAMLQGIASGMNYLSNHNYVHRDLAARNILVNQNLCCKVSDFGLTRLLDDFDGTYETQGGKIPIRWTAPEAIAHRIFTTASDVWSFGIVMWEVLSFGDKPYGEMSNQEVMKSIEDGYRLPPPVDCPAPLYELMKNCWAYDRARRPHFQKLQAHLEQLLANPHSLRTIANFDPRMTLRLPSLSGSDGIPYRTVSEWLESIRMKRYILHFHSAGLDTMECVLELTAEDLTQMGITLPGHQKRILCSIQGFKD

STAT3 phosphorylation = test: Western blot, STAT3 phosphorylation; assay type: cell-based, human; conditions: 10 μM, 24 h exposure
[9] = Pharmacokinetic study, cassette oral administration in mice; assay type: in vivo; conditions: oral 1 mg/kg
HepG2 cells [10] = test: Cell cycle analysis; assay type: cell-based, human; conditions: 30 μM, 24-h exposure
KM12 (colon cancer) = test: NCI-60 human tumor cell line screen, KM12; assay type: cell-based
[11] = tested on: oncogenic b-Raf (V600E) kinase; conditions: relative to sorafenib; cited from earlier work
FGFR2 = FGFR2 (Homo sapiens, UniProt P21802); test: KinaseSeeker kinase screen, FGFR2; assay type: binding; conditions: 10 μM, compared with sorafenib
NCI-60 panel [12] = conditions: average response from all cell lines tested

Chain of FGFR2 (P21802 22-821): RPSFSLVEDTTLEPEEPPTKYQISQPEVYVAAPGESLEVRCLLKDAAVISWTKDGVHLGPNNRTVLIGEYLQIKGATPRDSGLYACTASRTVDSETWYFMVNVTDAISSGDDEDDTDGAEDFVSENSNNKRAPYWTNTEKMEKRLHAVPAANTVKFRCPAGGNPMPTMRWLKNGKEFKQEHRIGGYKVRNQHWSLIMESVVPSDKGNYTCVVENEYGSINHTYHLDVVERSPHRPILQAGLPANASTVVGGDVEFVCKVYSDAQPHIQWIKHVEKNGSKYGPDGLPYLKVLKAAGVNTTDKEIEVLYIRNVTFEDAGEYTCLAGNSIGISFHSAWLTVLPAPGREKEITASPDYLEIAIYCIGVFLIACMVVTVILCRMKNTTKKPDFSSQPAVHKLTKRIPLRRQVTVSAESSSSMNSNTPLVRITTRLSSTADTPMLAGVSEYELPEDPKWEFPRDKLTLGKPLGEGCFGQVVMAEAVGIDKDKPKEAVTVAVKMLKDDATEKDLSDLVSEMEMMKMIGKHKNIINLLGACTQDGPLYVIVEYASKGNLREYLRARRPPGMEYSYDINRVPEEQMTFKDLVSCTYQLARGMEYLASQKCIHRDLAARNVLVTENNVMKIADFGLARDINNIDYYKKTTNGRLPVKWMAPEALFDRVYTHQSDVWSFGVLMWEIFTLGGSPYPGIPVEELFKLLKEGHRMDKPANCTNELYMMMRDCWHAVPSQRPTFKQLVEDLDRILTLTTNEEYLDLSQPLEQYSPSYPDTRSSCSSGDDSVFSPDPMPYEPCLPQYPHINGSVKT

For `C#Cc1cccc(Nc2ncnc3cc(OCCOC)c(OCCOC)cc23)c1` [Erlotinib (Tarceva®)], the “Potency, Mean TGI50” value (NCI-60 panel [1]) is listed as 59 µM and the GI50 (NCI-60 panel [1]) is listed as 5.5 µM.

In the case of `COc1cc2ncnc(Nc3ccc(F)c(Cl)c3)c2cc1OCCCN1CCOCC1` [Gefitinib (Iressa®)], the “Potency, Mean TGI50” value (NCI-60 panel [1]) is given as 19 µM and the GI50 (NCI-60 panel [1]) is given as 3.2 µM.

In the case of `Cc1ccc(NC(=O)c2ccc(CN3CCN(C)CC3)cc2)cc1Nc1nccc(-c2cccnc2)n1` [Imatinib (Gleevac®)], the “Potency, Mean TGI50” value (NCI-60 panel [1]) is given as 43 µM and the GI50 (NCI-60 panel [1]) is given as 15 µM.

In the case of `CNC(=O)c1cc(Oc2ccc(NC(=O)Nc3ccc(Cl)c(C(F)(F)F)c3)cc2)ccn1` [Sorafenib], the “lowest level at which caspase activation was observable” value (HepG2 [2]; HepG2, 72-h incubation) is reported as 0.1 µM, the “effect of Z-VAD-FMK on compound-induced cell death” value (HepG2 cells [3]) is reported as “no protective effect” and the EC50 (T47D) is reported as 3 ± 0.5 µM. For the same compound, the EC50 (SKBR3) was 6.5 ± 0.5 µM, the IC50 [4] was 0.012 µM and the EC50 (ACHN) was 4 ± 0.5 µM. For the same compound, the “Potency, Mean TGI50” value (NCI-60 panel [1]) was 6.0 µM, the GI50 (NCI-60 panel [1]) was 1.9 µM and the IC50 (Raf-1 kinase) was […]. For the same compound, the EC50 (PC-3) was 5.5 ± 0.8 µM, the EC50 (Huh-7 [5]) was 4.2 ± 0.5 µM and the “mitochondrial membrane depolarization and release of AIF” value (HepG2 cells [6]) was “observed”. For the same compound, the “lowest level at which caspase activation was observable” value (Huh-7 [7]; Huh-7, 72-h incubation) was 0.1 µM.

`CCN(CC)CCNC(=O)c1c(C)[nH]c(/C=C2\C(=O)Nc3ccc(F)cc32)c1C` [Sunitinib] showed an EC50 (T47D) of 12 ± 1 µM, an EC50 (SKBR3) of 10 ± 0.9 µM and an EC50 (ACHN) of 8 ± 1 µM. The “Potency, Mean TGI50” value (NCI-60 panel [1]) was 9.6 µM, the GI50 (NCI-60 panel [1]) was 2.2 µM and the EC50 (HepG2 [8]; Homo sapiens, HepG2, 72 h, read-out: EC50 cell viability, Liver HepG2) was 7.5 ± 0.8 µM. The EC50 (PC-3) was 8 ± 0.5 µM and the EC50 (Huh-7 [5]) was 8 ± 0.9 µM.

For `CNC(=O)c1cc(O[C@H]2CC[C@H](NC(=O)Nc3ccc(Cl)c(C(F)(F)F)c3)CC2)ccn1` [t-CUPM], the “caspase 3/7 induction” value (HepG2 [2]; HepG2, 25 μM, 72-h incubation) was “levels of caspase induction similar to sorafenib”, the “effect of Z-VAD-FMK on compound-induced cell death” value (HepG2 cells [3]) was “no protective effect” and the “kinase inhibitory activity toward EPHA1” value (EPHA1) was “reduced its kinase inhibitory activity”. For the same compound, the “suppression of STAT3 phosphorylation” value (STAT3 phosphorylation) was “not as effective as sorafenib”, the “Cmax compared with sorafenib” value [9] was “higher Cmax” and the “AUCt compared with sorafenib” value ([9]; 0.5 to 48 h) was “significantly higher AUCt”. For the same compound, the “blood levels relative to sorafenib” value ([9]; from 0.5 to 48 h) was “tenfold”, the “effect on cell cycle progression” value (HepG2 cells [10]) was “arrest in G0/G1 transition” and the GI50 (KM12 (colon cancer)) was 0.64 µM. For the same compound, the “loss in the activity toward oncogenic b-Raf (V600E) kinase” value [11] was 40 fold, the “EC50 relative to that of sorafenib” value (HepG2 [8]; cell viability, hepatoma cell lines HepG2 and Huh-7) was “< twofold” and the IC50 (Raf-1 kinase) was 0.075 µM. The “kinase inhibitory activity toward FGFR2” value (FGFR2) was “reduced its kinase inhibitory activity”, the “Potency, Mean TGI50” value (NCI-60 panel [12]) was 34 µM and the GI50 (NCI-60 panel [12]; read-out: Potency, Mean GI50) was 9 µM. The “mitochondrial membrane depolarization and release of AIF” value (HepG2 cells [6]) was “observed” and the “caspase 3/7 induction” value (Huh-7 [7]; Huh-7, 25 μM, 72-h incubation) was “levels of caspase induction similar to sorafenib”.

From PMC4400119 (Cancer chemotherapy and pharmacology, 2014)
